Source: article PMC9324262, “Selective CDK9 Inhibition by Natural Compound Toyocamycin in Cancer Cells” (Cancers, 2022)

What was measured:
[1] = test system: CDK9; settings: cited from earlier work
[2] = test system: YB5 cells; assay: anchorage-dependent clonogenic assay; assay type: cell-based, human; settings: 10–50 nM, 72 h treatment, 2 weeks drug-free
Procedure: Two hundred YB5 cells were seeded per well in 6-well plates. On the following day, YB5 cells were treated with toyocamycin for 24 h or 72 h. Decitabine (10–50 nM for 72 h) was used as a positive control for the loss of clonogenic potential. Drugs and media were replaced each day. After treatment, media was removed. YB5 cells were grown in drug-free media for 2 weeks to allow visible colony formation prior to colony staining (0.5% methylene blue in 50% methanol). YB5 colonies were counted manually.

[3] = test system: YB5 cells; assay: GFP reactivation in YB5 cell-based system (flow cytometry); set-up: species or system human; settings: for GFP+ cells: alone, screen control; for GFP expression in YB5 cells, adenosine analogues: Figure S2
Procedure: YB5 cells are derived from SW48 cells (human colon cancer cell line), and contain a single insertion of a DNA hypermethylated cytomegalovirus (CMV) promoter driving the green fluorescent protein (GFP) gene, as previously described. YB5 cells are cultured in L-15 medium supplemented with 10% fetal bovine serum and grown in log-phase in 1% CO2 atmosphere. YB5 cells were authenticated by DNA fingerprinting prior to drug screening and validation experiments. GFP expression in YB5 cells is silenced in >99.9% of the cells due to the CMV promoter DNA hypermethylation and repressive chromatin marks around the transcriptional start site. The human HCT116 colon cancer-derived GFP-reporter system, comprising a GFP gene under the control of an endogenously hypermethylated SFRP1 gene promoter, was kindly provided by Dr. Stephen Baylin (Johns Hopkins University). These cells are cultured in McCoy’s 5A medium supplemented with 10% fetal bovine serum and grown in log-phase in 5% CO2 atmosphere at 37 °C. The 451-Lu-BR melanoma cells were a kind gift from Dr. Raza Zaidi (Fels Institute for Cancer Research and Molecular Biology, Temple University School of Medicine, Philadelphia). These cells are derived from parental 451-LU cells that have acquired resistance to BRAF inhibitors. The 451-Lu-BR cells were cultured at 37 °C in Dulbecco’s Modified Eagle Medium (DMEM) supplemented with 10% fetal bovine serum, L-alanyl-L-glutamine (2 mM), and gentamycin (50 µg/mL) in 5% CO2 at 37 °C. The natural drug library (natural product set II) containing 120 compounds was obtained from the National Cancer Institute Developmental Therapeutics Program. Natural compounds were dissolved in DMSO (10 mM) in 96-well plates that were kept at −80°C until use. Toyocamycin, analogues of toyocamycin (sangivamycin, tubercidin, 3-deaza-adenosine, DZNep), CDK inhibitors, and epigenetic drugs (decitabine, SAHA, trichostatin A, depsipeptide) were purchased from Sigma-Aldrich (St. Louis, MO, USA,) for validation studies, dissolved in DMSO, and kept at −80 °C until use.
YB5 cells were seeded at 30,000 cell/mL in 96-well plates (6000 cells/well) and treated 3 days after seeding. Cells were exposed to 120 natural compounds in 5 different experimental conditions: (1) 72 h exposure at 10 µM followed by 24 h recovery period prior to analysis; (2) 24 h treatment at 50 µM prior to analysis; (3) 72 h exposure at 10 µM of the compound library followed by 24 h treatment with HDAC inhibitor trichostatin A (200 nM) prior to analysis; (4) 72 h exposure at 10 µM in simultaneous combination with decitabine (50 nM) followed by 24 h recovery period prior to analysis; and (5) 72 h treatment with decitabine (50 nM) followed by 24 h exposure with the natural compound library (50 µM) prior to analysis. The scheme of different dose schedules is shown Figure S1A. During screening, drugs and cell culture media were replaced every day. To ensure the quality and the reproducibility of the screen, each 96-well plate was designed to include 80 natural compounds, 4 untreated wells, 4 wells treated with decitabine (50 nM, 72 h), 4 wells treated with trichostatin A (200 nM, 24 h), and their combination with decitabine (50 nM, 72 h) followed by trichostatin A treatment (200 nM, 24 h) prior to flow cytometry analysis. The percentage of GFP-expressing cells in control wells (untreated or treated with known epigenetic drugs) was measured and was reproducible between different plates.
After treatment, YB5 cells were trypsinized for 15 min and resuspended in L-15 media containing propidium iodide (PI) to stain dead cells. GFP expression and PI staining were quantified by a BD LSR II flow cytometer (BD Biosciences, San Jose, CA, USA). A maximum of 10,000 cells was analyzed per well. Validations were performed using a Millipore Guava flow cytometer (EMD, Millipore, Burlington, MA, USA). […]

[4] = test system: RNA-Pol II Ser2-P; assay: Western blot, RNA Pol II and phospho-Pol II Ser2; assay type: cell-based, human; settings: HCT116, 1–10 µM, 16 h
Procedure: YB5 cells were harvested in 50 mM Tris-HCl, 1% NP-40, 1 mM EDTA, 1 mM EGTA, 0.25% sodium deoxycholate, 150 mM NaCl, 50 mM sodium fluoride, and 1X Complete protease cocktail (Roche, Basel, Switzerland) with 1 mM PMSF. The total protein concentration was measured in all samples by standard BCA protocol (Pierce-23225, Thermo Scientific, Waltham, MA, USA) to ensure that an equal amount of protein was added to each sample. Protein extracts were run on 12% SDS–PAGE precast gels (Bio-Rad, Hercules, CA, USA, 345-0118). Proteins were transferred to polyvinylidene difluoride (PVDF) membranes in 10 mmol/L CAPS (pH-11) containing 10% methanol and detected by using specific primary antibodies, horseradish peroxidase–conjugated secondary antibodies (GE Healthcare, Chicago, IL, USA), and an enhanced chemiluminescence reagent (Pierce). PVDF membranes were incubated with specific primary antibodies (actin—A5441, Sigma, St. Louis, MO, USA; HA-tagged—H9608, Sigma; FLAG-tagged—F3165, Sigma). FLAG- and HA-tagged CDK9 plasmids were a generous gift from Dr Bassel E. Sawaya (Temple University). For CDK9 target modulation, HCT116 colon cancer cells were treated with toyocamycin or known CDK9 inhibitor BAY1251152 (Selleckchem, Houston, TX, USA). Whole cell extracts were obtained by lysing cells with 25 mM Tris (pH 7.3) and 1% sodium dodecyl sulfate (SDS). After sonication, total protein concentrations were determined using Bradford protein assay. The following primary antibodies were used to investigate the effect of CDK9 inhibition: Pol II against the N-term region (sc-55492, Santa Cruz, Dallas, TX, USA), Pol II against the C-term region (39097, Active motif, Carlsbad, CA, USA), Pol II phospho CTD ser2 (14-9802-82, Invitrogen, Waltham, MA, USA), Rb (ab181616, Abcam, Cambridge, UK), Rb phospho T826 (ab133446, Abcam, Cambridge, UK), CDK9 (ab39098, Abcam, Cambridge, UK), and actin (ab1801, Abcam, Cambridge, UK). Images were acquired with an Image Quant LAS4000 device from GE Healthcare Life Sciences. Band intensity quantifications were calculated using ImageJ software, edition 1.53 [27].

**Q.** With CC(=O)N[C@@H]1CCC[C@H](C(=O)Nc2cc(-c3cnn4c3CC(C)(C)C4)c(Cl)cn2)C1 [AZD-4573] as the compound, how does the “CDK9 inhibition IC50 values” [1] read?
**A.** The value was “low nanomolar range”.

**Q.** Which results are given for Nc1ncn([C@H]2C[C@H](O)[C@@H](CO)O2)c(=O)n1 [decitabine, 5-aza-2′-deoxycytidine]?
**A.** colony formation [2]: still produced colonies; GFP+ cells ([3]; 50 nM, 72 h): about 15%

**Q.** For COc1cc(F)ccc1-c1cc(Nc2cc(CS(C)(=N)=O)ccn2)ncc1F (stereo not shown) [BAY1251152], which “RNA Pol II band intensity, Pol II C-terminal antibody” value [4] is on record?
**A.** The value was “reduced the RNA Pol II band intensity”.

**Q.** What about the “RNA-Pol II ser 2 phosphorylation” value [4] of the same compound?
**A.** The value was “significantly reduced”.

**Q.** For Nc1nccc2c1ncn2C1C=C(CO)C(O)C1O (stereo not shown) [DZNep], which “GFP expression in YB5 cells, adenosine analogues” value ([3]; 24 h) is on record?
**A.** The value was “only sangivamycin induced GFP expression”.

**Q.** Which “CDK9 inhibition IC50 values” [1] does the source give for Nc1n[nH]c(N)c1N=Nc1ccc(O)cc1 [CAN-508] here?
**A.** The value was “low nanomolar range”.

**Q.** For CC(C)(C)c1cnc(CSc2cnc(NC(=O)C3CCNCC3)s2)o1 [SNS-032], which “CDK9 inhibition IC50 values” [1] is on record?
**A.** Its value is “low nanomolar range”.

**Q.** With Nc1nc(N[C@H]2C[C@@H]3CC[C@H]2C3)sc1C(=O)c1ccccc1[N+](=O)[O-] [MC180295] as the compound, how does the “GFP fluorescence, % of YB5 cells” value ([3]; 500 nM, 48 h) read?
**A.** Its value is “about 10%”.

**Q.** For NC(=O)c1cn([C@@H]2O[C@H](CO)[C@@H](O)[C@H]2O)c2ncnc(N)c12 [sangivamycin], which CDK9 inhibition [1] is on record?
**A.** Its CDK9 inhibition is “direct CDK9 inhibition”.

**Q.** And the “GFP expression in YB5 cells, adenosine analogues” value ([3]; 24 h)?
**A.** Its value is “induced GFP expression in YB5 cells, but to a lesser extent than toyocamycin”.

**Q.** And the “GFP expression in YB5 cells, adenosine analogues” value ([3]; 24 h, listed as Sangivamycin)?
**A.** The value was “weak GFP activation”.

**Q.** With CC(/C=C/C(=O)NO)=C\[C@@H](C)C(=O)c1ccc(N(C)C)cc1 [trichostatin A] as the compound, how does the “GFP+ cells” value ([3]; 200 nM, 24 h) read?
**A.** Its value is “about 6%”.

**Q.** With COc1ccccc1-c1cc(Nc2cccc(CS(N)(=O)=O)c2)ncn1 [LDC000067] as the compound, how does the “CDK9 inhibition IC50 values” [1] read?
**A.** Its value is “low nanomolar range”.

**Q.** Which “GFP expression in YB5 cells, adenosine analogues” value ([3]; 24 h) does the source give for Nc1nccc2c1ncn2[C@@H]1O[C@H](CO)[C@@H](O)[C@H]1O [3-deaza-adenosine] here?
**A.** Its value is “only sangivamycin induced GFP expression”.

**Q.** Which “GFP expression in YB5 cells, adenosine analogues” value ([3]; 24 h) does the source give for Nc1ncnc2c1ccn2[C@@H]1O[C@H](CO)[C@@H](O)[C@H]1O [tubercidin] here?
**A.** Its value is “only sangivamycin induced GFP expression”.
